Data from US20200002283A1, “PYRAZOLE DERIVATIVES HAVING ACTIVITY AGAINST PAIN” (priority 2016, published 2020).
Where two headings read alike, the source gives them in different places.

Experiments:
[1] = biological target: T1, human μ-opioid receptor (Homo sapiens, UniProt P35372); experiment: Human μ-opioid receptor radioligand assay ([3H]-DAMGO); assay type: binding
T1 construct: expressed in transfected cells; host or cells: CHO-K1
Procedure: Human μ-Opioid Receptor Radioligand Assay
To investigate binding properties of test compounds to human μ-opioid receptor, transfected CHO-K1 cell membranes and [^3H]-DAMGO (Perkin Elmer, ES-542-C), as the radioligand, were used. The assay was carried out with 20 μg of membrane suspension, 1 nM of [^3H]-DAMGO in either absence or presence of either buffer or 10 μM Naloxone for total and non-specific binding, respectively. Binding buffer contained Tris-HCl 50 mM, MgCl2 5 mM at pH 7.4. Plates were incubated at 27° C. for 60 minutes. After the incubation period, the reaction mix was then transferred to MultiScreen HTS, FC plates (Millipore), filtered and plates were washed 3 times with ice-cold 10 mM Tris-HCL (pH 7.4). Filters were dried and counted at approximately 40% efficiency in a MicroBeta scintillation counter (Perkin-Elmer) using EcoScint liquid scintillation cocktail.

[2] = biological target: Human α2δ-1 subunit of Cav2.2 calcium channel (Homo sapiens, UniProt P54289); experiment: Human α2δ-1 subunit of Cav2.2 calcium channel assay ([3H]-Gabapentin binding)
Human α2δ-1 subunit of Cav2.2 calcium channel, sequence (P54289 25-1103): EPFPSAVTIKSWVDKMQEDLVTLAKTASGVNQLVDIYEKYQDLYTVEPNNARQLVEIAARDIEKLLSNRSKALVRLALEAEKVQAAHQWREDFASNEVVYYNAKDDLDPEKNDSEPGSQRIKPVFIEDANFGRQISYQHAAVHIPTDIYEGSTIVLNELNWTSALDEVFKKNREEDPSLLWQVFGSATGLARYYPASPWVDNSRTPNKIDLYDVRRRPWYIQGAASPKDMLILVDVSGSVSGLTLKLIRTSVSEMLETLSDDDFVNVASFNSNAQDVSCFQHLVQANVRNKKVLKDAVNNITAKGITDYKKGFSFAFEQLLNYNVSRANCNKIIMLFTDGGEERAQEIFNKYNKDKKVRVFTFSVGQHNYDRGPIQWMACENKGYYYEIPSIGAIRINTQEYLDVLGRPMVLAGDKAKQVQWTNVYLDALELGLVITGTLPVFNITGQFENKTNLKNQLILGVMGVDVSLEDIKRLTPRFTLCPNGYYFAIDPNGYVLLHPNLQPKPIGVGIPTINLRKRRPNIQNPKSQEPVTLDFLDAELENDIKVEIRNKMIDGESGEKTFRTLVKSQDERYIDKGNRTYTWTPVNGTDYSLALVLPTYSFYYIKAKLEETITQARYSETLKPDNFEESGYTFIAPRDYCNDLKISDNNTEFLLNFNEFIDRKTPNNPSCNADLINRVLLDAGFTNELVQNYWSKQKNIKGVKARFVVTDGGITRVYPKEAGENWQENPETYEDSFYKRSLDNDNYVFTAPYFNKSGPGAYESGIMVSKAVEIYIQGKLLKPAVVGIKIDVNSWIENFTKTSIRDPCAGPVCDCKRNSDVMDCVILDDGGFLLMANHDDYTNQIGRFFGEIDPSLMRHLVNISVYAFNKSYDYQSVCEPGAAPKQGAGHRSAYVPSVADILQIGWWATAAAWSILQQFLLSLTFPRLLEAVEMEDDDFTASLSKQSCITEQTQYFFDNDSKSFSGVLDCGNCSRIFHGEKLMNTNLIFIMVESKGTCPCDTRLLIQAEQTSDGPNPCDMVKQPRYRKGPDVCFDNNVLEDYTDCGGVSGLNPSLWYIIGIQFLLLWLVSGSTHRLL
Procedure: Human α2δ-1 Subunit of Cav2.2 Calcium Channel Assay
Human α2δ-1 enriched membranes (2.5 μg) were incubated with 15 nM of radiolabeled [3H]-Gabapentin in assay buffer containing Hepes-KOH 10 mM, pH 7.4. NSB (non specific binding) was measured by adding 10 μM pregabalin. After 60 min incubation at 27° C., binding reaction was terminated by filtering through Multiscreen GF/C (Millipore) presoaked in 0.5% polyethyleneimine in Vacuum Manifold Station, followed by 3 washes with ice-cold filtration buffer containing 50 mM Tris-HCl, pH 7.4. Filter plates were dried at 60° C. for 1 hour and 30 μl of scintillation cocktail were added to each well before radioactivity reading. Readings were performed in a Trilux 1450 Microbeta radioactive counter (Perkin Elmer).

[3] = transfected CHO-K1 cell membranes, 1 nM [3H]-DAMGO, read-out: μ binding
[4] = human α2δ-1 enriched membranes, 15 nM [3H]-Gabapentin, read-out: α2δ-1 binding

T1 sequence (P35372 whole entry): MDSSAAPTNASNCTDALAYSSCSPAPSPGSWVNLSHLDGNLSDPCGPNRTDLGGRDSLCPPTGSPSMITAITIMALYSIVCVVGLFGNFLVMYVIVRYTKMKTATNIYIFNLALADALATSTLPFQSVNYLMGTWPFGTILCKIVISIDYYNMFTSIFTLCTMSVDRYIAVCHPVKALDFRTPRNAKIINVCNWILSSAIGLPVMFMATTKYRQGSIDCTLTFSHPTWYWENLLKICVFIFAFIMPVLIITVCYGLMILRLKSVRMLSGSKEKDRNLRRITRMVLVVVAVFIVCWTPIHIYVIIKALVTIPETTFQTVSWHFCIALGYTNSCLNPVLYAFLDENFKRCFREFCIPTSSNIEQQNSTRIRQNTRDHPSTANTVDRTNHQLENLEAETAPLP

Row | SMILES | Ki [1, 3] | Ki [2, 4] | Ki [1] | Ki [2]
1 | COc1ccc(Cc2cc(CN)nn2-c2ccc(Cl)cc2)cc1 [Example 3, [1-(4-Chlorophenyl)-5-(4-methoxybenzyl)-1H-pyrazol-3-yl]methanamine] | > 0.5 µM | 3 to 5 µM |  | 
2 | COc1ccc(Cc2cc(CN(C)C)nn2-c2ccc(Cl)cc2Cl)cc1 [Example 21, 1-[1-(2,4-Dichlorophenyl)-5-(4-methoxybenzyl)-1H-pyrazol-3-yl]-N,N-dimethylmethanamine] | > 0.5 µM | 3 to 5 µM |  | 
3 | NC(=O)CC(N)c1cc(Cc2ccc(O)cc2)n(-c2ccc(Cl)cc2Cl)n1 (stereo not drawn) [Example 77, 3-Amino-3-[1-(2,4-dichlorophenyl)-5-(4-hydroxybenzyl)-1H-pyrazol-3-yl]propanamide] |  |  | < 0.1 µM | > 5 µM
